Test results as given in US11149009B2, “Fused piperidinyl bicyclic and related compounds as modulators of C5A receptor” (InflaRx GmbH, priority 2019, dated 2021).
pIC50: −log10 of the molar value.

Target: C5a receptor (Homo sapiens (Human), UniProt P21730)
Assay: Calcium mobilization assay (C5a-induced, U937 cells)
Format: cell-based
Conditions: inhibition of C5a-induced calcium mobilization
Experimental: U937 cells (ATCC® CRL-1593.2) were cultivated in RPMI1640 medium supplemented with 10% fetal bovine serum in a standard cell culture incubator. The day before conducting the assay, Dibutyryl-cAMP (0.5 mM working concentration) was added to cell cultures. Next day, cells were spun and resuspended in RPMI 1640 to a concentration of 40,000 cells per 50 μl. 40,000 cells were plated in one well in a 96 well poly-D-lysine coated plate for two hours to allow cells to adhere. After cell adherence, cytoplasmic calcium^++ indicator (FLIPR Calcium 6 Assay Kit, Molecular Devices) was added to each well and incubated for 75 minutes at 37° C. Test compounds were diluted using a robotic liquid handler. The tips of the robotic liquid handler were changed after each mixing step. Test compounds were added into cell cultures at various concentrations (0.01 nM to 100 μM) for 15 minutes at 37° C. The cell culture plates were then incubated at room temperature for 30 minutes before being placed into Flexstation-3 plate reader (Molecular Devices). The Flexstation-3 was programmed to add recombinant C5a protein at various concentrations (1 nM to 10 nM) to cell culture plates and to monitor the change of fluorescence intensity, which correlates with cytoplasmic calcium concentration. The assay was also performed with the presence of human or animal blood components, such as human or bovine plasma or serum.
The half maximal inhibitory concentrations, i.e. IC50, were determined in biological assays, such as calcium mobilization assay. Using the calcium mobilization assay the following IC50 values were determined by the best dose-response curve fitting method. The curves were plotted using percentage inhibition of C5a-induced calcium mobilization versus various concentrations of compounds.

Sequence of C5a receptor (P21730 whole entry): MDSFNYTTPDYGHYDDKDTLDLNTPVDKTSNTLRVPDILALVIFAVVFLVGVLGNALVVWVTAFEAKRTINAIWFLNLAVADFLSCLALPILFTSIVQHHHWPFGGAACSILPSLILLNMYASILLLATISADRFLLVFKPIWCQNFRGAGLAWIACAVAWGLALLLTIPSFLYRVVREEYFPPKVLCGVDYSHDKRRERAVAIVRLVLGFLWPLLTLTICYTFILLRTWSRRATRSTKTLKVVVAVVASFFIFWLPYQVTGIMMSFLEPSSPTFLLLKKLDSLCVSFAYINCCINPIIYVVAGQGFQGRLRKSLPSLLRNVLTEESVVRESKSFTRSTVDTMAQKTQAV

pIC50	Structure (SMILES)
> 8.00	Cc1ccc(NC(=O)[C@H]2Cc3ccccc3N(C(=O)c3c(C)cccc3F)[C@H]2c2ccc(NC3CCCC3)cc2)cc1C(F)(F)F [INF004, (2R,3S)-2-(4-(cyclopentylamino)phenyl)-1-(2-fluoro-6-methylbenzoyl)-N-(4-methyl-3-(trifluoromethyl)phenyl)-1,2,3,4-tetrahydroquinoline-3-carboxamide]
> 8.00	Cc1cccc(F)c1C(=O)N1c2ccccc2C[C@H](C(=O)Nc2ccc(CO)c(C(F)(F)F)c2)[C@@H]1c1ccc(NC2CCCC2)cc1 [INF015, (2R,3S)-2-(4-(cyclopentylamino)phenyl)-1-(2-fluoro-6-methylbenzoyl)-N-(4-(hydroxymethyl)-3-(trifluoromethyl)phenyl)-1,2,3,4-tetrahydroquinoline-3-carboxamide]
> 8.00	Cc1ccc(NC(=O)[C@H]2Cc3cc(F)ccc3N(C(=O)c3c(C)cccc3F)[C@H]2c2ccc(NC3CCCC3)cc2)cc1C(F)(F)F [INF022, (2R,3S)-2-(4-(cyclopentylamino)phenyl)-6-fluoro-1-(2-fluoro-6-methylbenzoyl)-N-(4-methyl-3-(trifluoromethyl)phenyl)-1,2,3,4-tetrahydroquinoline-3-carboxamide]
> 8.00	Cc1ccc2c(c1)C[C@H](C(=O)Nc1ccc(C)c(C(F)(F)F)c1)[C@H](c1ccc(NC3CCCC3)cc1)N2C(=O)c1c(C)cccc1F [INF023, (2R,3S)-2-(4-(cyclopentylamino)phenyl)-1-(2-fluoro-6-methylbenzoyl)-6-methyl-N-(4-methyl-3-(trifluoromethyl)phenyl)-1,2,3,4-tetrahydroquinoline-3-carboxamide]
> 8.00	COc1ccc2c(c1)C[C@H](C(=O)Nc1ccc(C)c(C(F)(F)F)c1)[C@H](c1ccc(NC3CCCC3)cc1)N2C(=O)c1c(C)cccc1F [INF024, (2R,3S)-2-(4-(cyclopentylamino)phenyl)-1-(2-fluoro-6-methylbenzoyl)-6-methoxy-N-(4-methyl-3-(trifluoromethyl)phenyl)-1,2,3,4-tetrahydroquinoline-3-carboxamide]
> 8.00	Cc1cccc(F)c1C(=O)N1c2ccccc2C[C@H](C(=O)Nc2ccc(O)c(C(F)(F)F)c2)[C@@H]1c1ccc(NC2CCCC2)cc1 [INF033, (2R,3S)-2-(4-(cyclopentylamino)phenyl)-1-(2-fluoro-6-methylbenzoyl)-N-(4-hydroxy-3-(trifluoromethyl)phenyl)-1,2,3,4-tetrahydroquinoline-3-carboxamide]
> 8.00	Cc1cccc(F)c1C(=O)N1c2ccc(F)cc2C[C@H](C(=O)Nc2ccc(CO)c(C(F)(F)F)c2)[C@@H]1c1ccc(NC2CCCC2)cc1 [INF039, (2R,3S)-2-(4-(cyclopentylamino)phenyl)-6-fluoro-1-(2-fluoro-6-methylbenzoyl)-N-(4-(hydroxymethyl)-3-(trifluoromethyl)phenyl)-1,2,3,4-tetrahydroquinoline-3-carboxamide]
> 8.00	Cc1cccc(F)c1C(=O)N1c2cccc(F)c2C[C@H](C(=O)Nc2ccc(CO)c(C(F)(F)F)c2)[C@@H]1c1ccc(NC2CCCC2)cc1 [INF045, (2R,3S)-2-(4-(cyclopentylamino)phenyl)-5-fluoro-1-(2-fluoro-6-methylbenzoyl)-N-(4-(hydroxymethyl)-3-(trifluoromethyl)phenyl)-1,2,3,4-tetrahydroquinoline-3-carboxamide]
> 8.00	Cc1ccc(NC(=O)[C@H]2C[C@@H](C(F)(F)F)CN(C(=O)c3c(F)cccc3F)[C@H]2c2ccc(NC3CCCC3)cc2)cc1C(F)(F)F [INF052, (2R,3S,5R)-2-(4-(cyclopentylamino)phenyl)-1-(2,6-difluorobenzoyl)-N-(4-methyl-3-(trifluoromethyl)phenyl)-5-(trifluoromethyl)piperidine-3-carboxamide]
> 8.00	[2H]C1(Nc2ccc([C@H]3[C@@H](C(=O)Nc4ccc(C)c(C(F)(F)F)c4)C[C@@H](C(F)(F)F)CN3C(=O)c3c(F)cccc3F)cc2)CCCC1 [INF067, (2R,3S,5R)-2-(4-((cyclopentyl-1-d)amino)phenyl)-1-(2,6-difluorobenzoyl)-N-(4-methyl-3-(trifluoromethyl)phenyl)-5-(trifluoromethyl)piperidine-3-carboxamide]
> 8.00	O=C(Nc1ccc(O)c(C(F)(F)F)c1)[C@H]1C[C@@H](C(F)(F)F)CN(C(=O)c2c(F)cccc2F)[C@H]1c1ccc(NC2CCCC2)cc1 [INF068, (2R,3S,5R)-2-(4-(cyclopentylamino)phenyl)-1-(2,6-difluorobenzoyl)-N-(4-hydroxy-3-(trifluoromethyl)phenyl)-5-(trifluoromethyl)piperidine-3-carboxamide]
> 8.00	Cc1ccc(NC(=O)[C@H]2C[C@@H](C(F)(F)F)CN(C(=O)c3c(F)cccc3F)[C@H]2c2ccc(NC3CCCC3)cc2)cc1Cl [INF071, (2R,3S,5R)—N-(3-chloro-4-methylphenyl)-2-(4-(cyclopentylamino)phenyl)-1-(2,6-difluorobenzoyl)-5-(trifluoromethyl)piperidine-3-carboxamide]
